Results published in US6548235B2, “Stabilized solution of an alkali metal or alkaline earth metal salt of p-phenylenediamine color developer and method of making same” (Eastman Chemical Company, priority 2000, dated 2003).
Each block holds one compound with its values, some of them ahead of it.

Key:
Format in all cases: physicochemical
[1] = Saturation solubility of CD-3 free base in solvents and solvent/water mixtures; conditions: 3% DEHA, ambient temperature
Procedure: The solubility of the free base form of color developers CD-3 in a number of potential solvents was determined. Representative solvents were selected from each of the different classes of solvents: alcohols, glycols and glycol ethers. A small quantity of a representative preservative, 3% of N,N-diethylhydroxylamine (DEHA), was added. Excess dry color developer free base (CD-3) was added to each solvent and saturation was achieved by mixing for several hours at room temperature. […] In Table I, Solvent:Water refers to the weight:weight, solvent:water ratio when water was included, CD Free Base Concentration refers to the weight percent saturation concentration of CD-3, and PEG 200 and PEG 300 refers to poly(ethylene glycol) having an average molecular weight of 200 or 300.

[2] = Saturation solubility of CD-3 free base in solvent/water/sodium hydroxide systems; conditions: 3 weight percent DEHA, ambient temperature, HPLC
Procedure: Because CD-3 free base can be converted to its metal salt by treatment with a sufficiently strong base such as an alkali metal or alkaline earth metal hydroxide, carbonate, alkoxide or hydride, the solubility of CD-3 free base in solvent systems in combination with water and base was measured to determine if enhanced solubility could be obtained. The saturation concentration in weight percent again was determined by the techniques of both HPLC and NMR. Selected solvents were combined with water and an alkali metal hydroxide (sodium hydroxide), with each sample containing a small quantity (3 weight percent) of a representative preservative (DEHA). Excess, dry CD-3 free base was added to each combination solvent system and saturation was achieved by mixing for several hours at ambient temperature.

[3] = Product solution of CD-3 free base sodium salt after solvent exchange, observed at ambient temperature; conditions: Example 53, nominally 23% in water after distilling 2-propanol, contains DEHA
Procedure: A 425 gram autoclave solution containing 23.2% CD-3 free base, 2.5% DEHA in 268 g of 2-propanol, and 47 g of water was added to a two-liter flask equipped with an overhead agitator, temperature probe, addition funnel, condenser with take-off provision, and nitrogen blanketing. Water (275 g) and 30 g of 50% aqueous sodium hydroxide were added to the flask. The mixture was distilled at a vapor temperature of approximately 85° C.

CD Free Base Conc. (saturation concentration) ([1]; Example 1, 2-Isopropoxyethanol): 8.6 weight percent | CD Free Base Conc. (saturation concentration) ([1]; Example 2, 2-Methyl-1,3-Propanediol): 3.3 weight percent | CD Free Base Conc. (saturation concentration) ([1]; Example 3, 3-Methoxy-1-Butanol): 9.3 weight percent | CD Free Base Conc. (saturation concentration) ([1]; Example 4, PEG-200): 16.9 weight percent | CD Free Base Conc. (saturation concentration) ([1]; Example 5, PEG-300): 16.7 weight percent | CD Free Base Conc. (saturation concentration) ([1]; Example 6, Diethylene Glycol): 15.2 weight percent | CD Free Base Conc. (saturation concentration) ([1]; Example 7, Methanol): 23.6 weight percent | CD Free Base Conc. (saturation concentration) ([1]; Example 8, Methanol/Water 90:10 w:w): 18.9 weight percent | CD Free Base Conc. (saturation concentration) ([1]; Example 9, Methanol/Water 50:50 w:w): 6.8 weight percent | CD Free Base Conc. (saturation concentration) ([1]; Example 10, Methanol/Water 10:90 w:w): 0.7 weight percent | CD Free Base Conc. (saturation concentration) ([1]; Example 11, Ethanol): 5.4 weight percent | CD Free Base Conc. (saturation concentration) ([1]; Example 12, Ethanol/Water 90:10 w:w): 9.7 weight percent | CD Free Base Conc. (saturation concentration) ([1]; Example 13, Ethanol/Water 50:50 w:w): 9.0 weight percent | CD Free Base Conc. (saturation concentration) ([1]; Example 14, Ethanol/Water 10:90 w:w): 0.6 weight percent | CD Free Base Conc. (saturation concentration) ([1]; Example 15, 2-Propanol): 1.8 weight percent | CD Free Base Conc. (saturation concentration) ([1]; Example 16, 2-Propanol/Water 90:10 w:w): 7.8 weight percent | CD Free Base Conc. (saturation concentration) ([1]; Example 17, 2-Propanol/Water 50:50 w:w): 9.2 weight percent | CD Free Base Conc. (saturation concentration) ([1]; Example 18, 2-Propanol/Water 10:90 w:w): 0.8 weight percent | CD Free Base Conc. (saturation concentration) ([2]; Example 19, 2-Isopropoxyethanol/Water/NaOH 63:34:3 w): 22.9 weight percent | CD Free Base Conc. (saturation concentration) ([2]; Example 20, 2-Methyl-1,3-Propanediol/Water/NaOH 63:34:3 w): 19.0 weight percent | CD Free Base Conc. (saturation concentration) ([2]; Example 21, 3-Methoxy-1-Butanol/Water/NaOH 63:34:3 w): 21.3 weight percent | CD Free Base Conc. (saturation concentration) ([2]; Example 22, PEG-200/Water/NaOH 63:34:3 w): 19.5 weight percent | CD Free Base Conc. (saturation concentration) ([2]; Example 23, PEG-300/Water/NaOH 63:34:3 w): 19.2 weight percent | CD Free Base Conc. (saturation concentration) ([2]; Example 24, Diethylene Glycol/Water/NaOH 63:34:3 w): 15.1 weight percent | CD Free Base Conc. (saturation concentration) ([2]; Example 26, 2-Methyl-1,3-Propanediol/Water/NaOH 61:33:6 w): 23.2 weight percent | CD Free Base Conc. (saturation concentration) ([2]; Example 27, 3-Methoxy-1-Butanol/Water/NaOH 61:33:6 w): 26.4 weight percent | CD Free Base Conc. (saturation concentration) ([2]; Example 28, PEG-200/Water/NaOH 61:33:6 w): 23.5 weight percent | CD Free Base Conc. (saturation concentration) ([2]; Example 29, PEG-300/Water/NaOH 61:33:6 w): 20.8 weight percent | CD Free Base Conc. (saturation concentration) ([2]; Example 30, Diethylene Glycol/Water/NaOH 61:33:6 w): 21.9 weight percent | CD Free Base Conc. (saturation concentration) ([2]; Example 31, Water/NaOH 93.5:6.5 w): 25.1 weight percent | CD Free Base Conc. (saturation concentration) ([2]; Example printed 24 (second), 2-Isopropoxyethanol/Water/NaOH 61:33:6 w): 21.9 weight percent
SMILES: CCN(CCNS(C)(=O)=O)c1ccc(N)c(C)c1 [CD-3 free base, 4-amino-3-methyl-N-ethyl-N-(2-methanesulfonamidoethyl)aniline]

Solution behaviour of final product solution [3]: remained in solution
SMILES: CCN(CC[N-]S(C)(=O)=O)c1ccc(N)c(C)c1.[Na+] [CD-3 free base sodium salt]
